Laboratory results published in patent US8106055B2, “Substituted amide compounds” (Gruenenthal GmbH, priority 2007, dated 2012).

Assays:
[1] = target: T1, bradykinin 1 receptor (B1R) of the rat (Rattus norvegicus, UniProt P97583); assay: Functional investigation on the rat bradykinin 1 receptor (B1R), Ca2+ FLIPR assay in CHO K1 rB1R cells; assay type: cell-based; settings: CHO-K1, B1R antagonism rat; test substance 10 μM; Ca2+ FLIPR, CHO K1 rB1R cells; read-out: B1R Ant. r [10 μM] % Inhibition
T1 construct: expressed in transfected cells; host or cells: CHO K1 cells
T1 sequence (P97583 1-337): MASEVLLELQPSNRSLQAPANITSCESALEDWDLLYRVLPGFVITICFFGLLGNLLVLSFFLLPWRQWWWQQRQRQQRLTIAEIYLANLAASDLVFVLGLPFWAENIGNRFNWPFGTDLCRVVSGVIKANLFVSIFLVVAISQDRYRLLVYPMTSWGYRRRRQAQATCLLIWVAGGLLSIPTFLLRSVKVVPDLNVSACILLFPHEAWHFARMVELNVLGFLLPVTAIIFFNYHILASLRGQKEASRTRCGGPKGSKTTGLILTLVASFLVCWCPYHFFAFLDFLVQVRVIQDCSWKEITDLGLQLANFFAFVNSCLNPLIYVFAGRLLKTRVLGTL
Method in brief: (§1)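 Cells were dye-loaded with Fluo-4 plus probenecid, then test substances added and Ca2+ influx compared with agonist control for % activation. After 10-20 min, EC80 agonist (Lys-Des-Arg9-bradykinin human; Des-Arg9-bradykinin rat) was applied; suppression gave % inhibition and IC50 values.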

human μ opiate receptor = target: T2, human μ opiate receptor (Homo sapiens, UniProt P35372); assay: Affinity for the human μ opiate receptor ([3H]-naloxone displacement, CHO-K1 receptor membrane preparation, SPA); assay type: binding; settings: 1.5 h, Table 3, to be read in the same way as Table 1; test concentration 1 μM; read-out: μ
T2 construct: purchased PerkinElmer Life Sciences, Zaventem, Belgium RB-HOM; host or cells: CHO-K1 cells (membrane preparation)
Method in brief: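 Membranes from CHO-K1 cells expressing the human μ opiate receptor (15-40 μg protein per well) were incubated with test compound, 1 nmol/l [3H]-naloxone and WGA-SPA beads in 50 mmol/l Tris-HCl with 0.06% BSA for 90 minutes at room temperature. Values are % inhibition of specific binding at 1 μmol/l.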

[2] = target: T3, human bradykinin 1 receptor (B1R) (Homo sapiens, UniProt P46663); assay: Functional investigation on the human bradykinin 1 receptor (B1R), Ca2+ FLIPR assay in CHO K1 hB1R cells; assay type: cell-based; settings: CHO-K1, B1R antagonism human; test substance 10 μM; Ca2+ FLIPR, CHO K1 hB1R cells; read-out: B1R Ant. h [10 μM] % Inhibition
T3 construct: expressed in transfected cells; host or cells: CHO K1 cells
T3 sequence (P46663 1-353): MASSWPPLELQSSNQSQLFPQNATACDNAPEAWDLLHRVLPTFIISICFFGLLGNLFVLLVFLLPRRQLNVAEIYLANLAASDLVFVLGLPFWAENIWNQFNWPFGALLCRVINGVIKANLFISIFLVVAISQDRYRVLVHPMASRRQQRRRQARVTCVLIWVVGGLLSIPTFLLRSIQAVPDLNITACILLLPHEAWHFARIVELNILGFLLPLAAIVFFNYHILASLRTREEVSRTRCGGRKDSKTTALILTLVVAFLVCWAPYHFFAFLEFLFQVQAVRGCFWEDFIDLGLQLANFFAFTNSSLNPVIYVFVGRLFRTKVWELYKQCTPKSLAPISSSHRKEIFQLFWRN
Method in brief: as §1

T2 sequence (P35372 whole entry): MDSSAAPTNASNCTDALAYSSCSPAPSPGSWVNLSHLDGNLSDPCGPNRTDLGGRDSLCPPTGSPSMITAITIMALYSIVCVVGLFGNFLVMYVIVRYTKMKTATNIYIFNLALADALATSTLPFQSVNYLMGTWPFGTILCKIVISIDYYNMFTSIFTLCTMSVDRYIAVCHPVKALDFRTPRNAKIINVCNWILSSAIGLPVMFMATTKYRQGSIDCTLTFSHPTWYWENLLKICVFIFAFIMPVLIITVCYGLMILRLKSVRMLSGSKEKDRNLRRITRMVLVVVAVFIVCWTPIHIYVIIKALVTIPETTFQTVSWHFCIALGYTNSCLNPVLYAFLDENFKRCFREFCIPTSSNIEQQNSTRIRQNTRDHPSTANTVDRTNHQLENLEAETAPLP

Row | Compound | inhibition at 10 µM [1] | inhibition at 1 µM (human μ opiate receptor) | inhibition at 10 µM [2]
1 | O=C(COC1CCCN(S(=O)(=O)c2c(Cl)cc(Cl)cc2Cl)C1)NC1CCC(C(c2ccccc2)N2CCOCC2)CC1 (stereo not drawn) [Example 691, N-(4-(morpholino(phenyl)methyl)cyclohexyl)-2-(1-(2,4,6-trichlorophenylsulfonyl)piperidin-3-yloxy)acetamide] | 6% | 58% | 10%
2 | CN1CCN(C(c2ccccc2)C2CCC(NC(=O)COC3CCCN(S(=O)(=O)c4c(Cl)cc(Cl)cc4Cl)C3)CC2)CC1 (stereo not drawn) [Example 692, N-(4-((4-methylpiperazin-1-yl)(phenyl)methyl)cyclohexyl)-2-(1-(2,4,6-trichlorophenylsulfonyl)piperidin-3-yloxy)acetamide] | 41% | 65% | 78%
3 | COc1cc(C)c(S(=O)(=O)N2CCCC(OCC(=O)NC3CCC(C(c4ccccc4)N4CCOCC4)CC3)C2)c(C)c1 (stereo not drawn) [Example 693, 2-(1-(4-methoxy-2,6-dimethylphenylsulfonyl)piperidin-3-yloxy)-N-(4-(morpholino(phenyl)methyl)cyclohexyl)acetamide] | 50% | 9% | 26%
4 | COc1cc(C)c(S(=O)(=O)N2CCCC2COCC(=O)NC2CCC(C(c3ccccc3)N3CCOCC3)CC2)c(C)c1 (stereo not drawn) [Example 694, 2-((1-(4-methoxy-2,6-dimethylphenylsulfonyl)pyrrolidin-2-yl)methoxy)-N-(4-(morpholino(phenyl)methyl)cyclohexyl)acetamide] | 104% | 10% | 54%
5 | COc1cc(C)c(S(=O)(=O)N2CCCC2COCC(=O)NC2CCC(C(c3ccccc3)N3CCN(C)CC3)CC2)c(C)c1 (stereo not drawn) [Example 695, 2-((1-(4-methoxy-2,6-dimethylphenylsulfonyl)pyrrolidin-2-yl)methoxy)-N-(4-((4-methylpiperazin-1-yl)(phenyl)methyl)cyclohexyl)acetamide] | 103% | 27% | 103%
6 | O=C(COCC1CCCN1S(=O)(=O)c1c(Cl)cc(Cl)cc1Cl)NC1CCC(C(CCc2ccccc2)N2CCOCC2)CC1 (stereo not drawn) [Example 696, N-(4-(1-morpholino-3-phenylpropyl)cyclohexyl)-2-((1-(2,4,6-trichlorophenylsulfonyl)pyrrolidin-2-yl)methoxy)acetamide] | 91% | 21% | 43%
7 | O=C(COCC1CCCN1S(=O)(=O)c1c(Cl)cc(Cl)cc1Cl)NC1CCC(C(CCc2ccccc2)N2CCCCC2)CC1 (stereo not drawn) [Example 697, N-(4-(3-phenyl-1-(piperidin-1-yl)propyl)cyclohexyl)-2-((1-(2,4,6-trichlorophenylsulfonyl)pyrrolidin-2-yl)methoxy)acetamide] | 97% | 76% | 71%
8 | O=C(COCC1CCCN1S(=O)(=O)c1c(Cl)cc(Cl)cc1Cl)NC1CCC(C(c2ccccc2)N2CCOCC2)CC1 (stereo not drawn) [Example 698, N-(4-(morpholino(phenyl)methyl)cyclohexyl)-2-((1-(2,4,6-trichlorophenylsulfonyl)pyrrolidin-2-yl)methoxy)acetamide] | 86% | 40% | 39%
9 | COc1cc(C)c(S(=O)(=O)N2CCCCC2COCC(=O)NC2CCC(C(c3ccccc3)N3CCOCC3)CC2)c(C)c1 (stereo not drawn) [Example 699, 2-((1-(4-methoxy-2,6-dimethylphenylsulfonyl)piperidin-2-yl)methoxy)-N-(4-(morpholino(phenyl)methyl)cyclohexyl)acetamide] | 104% | 15% | 90%
10 | O=C(COCC1CCCCN1S(=O)(=O)c1c(Cl)cc(Cl)cc1Cl)NC1CCC(C(c2ccccc2)N2CCOCC2)CC1 (stereo not drawn) [Example 700, N-(4-(morpholino(phenyl)methyl)cyclohexyl)-2-((1-(2,4,6-trichlorophenylsulfonyl)piperidin-2-yl)methoxy)acetamide] | 89% | 27% | 38%
11 | COc1cc(C)c(S(=O)(=O)N2CCCC(COCC(=O)NC3CCC(C(c4ccccc4)N4CCOCC4)CC3)C2)c(C)c1 (stereo not drawn) [Example 701, 2-((1-(4-methoxy-2,6-dimethylphenylsulfonyl)piperidin-3-yl)methoxy)-N-(4-(morpholino(phenyl)methyl)cyclohexyl)acetamide] | 49% | 2% | 16%
12 | COc1cc(C)c(S(=O)(=O)N2CCCC(COCC(=O)NC3CCC(C(c4ccccc4)N4CCN(C)CC4)CC3)C2)c(C)c1 (stereo not drawn) [Example 702, 2-((1-(4-methoxy-2,6-dimethylphenylsulfonyl)piperidin-3-yl)methoxy)-N-(4-((4-methylpiperazin-1-yl)(phenyl)methyl)cyclohexyl)acetamide] | 74% | 19% | 70%
13 | O=C(COCC1CCCN(S(=O)(=O)c2c(Cl)cc(Cl)cc2Cl)C1)NC1CCC(C(c2ccccc2)N2CCOCC2)CC1 (stereo not drawn) [Example 703, N-(4-(morpholino(phenyl)methyl)cyclohexyl)-2-((1-(2,4,6-trichlorophenylsulfonyl)piperidin-3-yl)methoxy)acetamide] | 37% | 19% | -4%
14 | CN1CCN(C(c2ccccc2)C2CCC(NC(=O)COCCN(C)S(=O)(=O)c3ccc(Cl)cc3Cl)CC2)CC1 (stereo not drawn) [Example 704, 2-(2-(2,4-dichloro-N-methylphenylsulfonamido)ethoxy)-N-(4-((4-methylpiperazin-1-yl)(phenyl)methyl)cyclohexyl)acetamide] | 39% | 27% | 75%
15 | CN(CCOCC(=O)NCC1CCC(C(c2ccccc2)N2CCOCC2)CC1)S(=O)(=O)c1ccc(Cl)cc1Cl (stereo not drawn) [Example 705, 2-(2-(2,4-dichloro-N-methylphenylsulfonamido)ethoxy)-N-((4-(morpholino(phenyl)methyl)cyclohexyl)methyl)acetamide] | -9% | 8% | 49%
16 | CN(CCOCC(=O)NCC1CCC(C(c2ccccc2)N2CCOCC2)CC1)S(=O)(=O)c1c(Cl)cccc1Cl (stereo not drawn) [Example 706, 2-(2-(2,6-dichloro-N-methylphenylsulfonamido)ethoxy)-N-((4-(morpholino(phenyl)methyl)cyclohexyl)methyl)acetamide] | 52% | 7% | 77%
17 | O=C(COC1CCCN(S(=O)(=O)c2c(Cl)cc(Cl)cc2Cl)C1)NCC1CCC(C(c2ccccc2)N2CCOCC2)CC1 (stereo not drawn) [Example 707, N-((4-(morpholino(phenyl)methyl)cyclohexyl)methyl)-2-(1-(2,4,6-trichlorophenylsulfonyl)piperidin-3-yloxy)acetamide] | 25% | 28% | 2%
18 | COc1cc(C)c(S(=O)(=O)N2CCCC(OCC(=O)NC3CCC(C(c4ccccc4)N4CCN(C)CC4)CC3)C2)c(C)c1 (stereo not drawn) [Example 708, 2-(1-(4-methoxy-2,6-dimethylphenylsulfonyl)piperidin-3-yloxy)-N-(4-((4-methylpiperazin-1-yl)(phenyl)methyl)cyclohexyl)acetamide] | 91% | 29% | 100%
19 | COc1cc(C)c(S(=O)(=O)N2CCCC2COCC(=O)NCC2CCC(C(c3ccccc3)N3CCOCC3)CC2)c(C)c1 (stereo not drawn) [Example 709, 2-((1-(4-methoxy-2,6-dimethylphenylsulfonyl)pyrrolidin-2-yl)methoxy)-N-((4-(morpholino(phenyl)methyl)cyclohexyl)methyl)acetamide] | 104% | 8% | 82%
20 | O=C(COCC1CCCN1S(=O)(=O)c1c(Cl)cc(Cl)cc1Cl)NCC1CCC(C(c2ccccc2)N2CCOCC2)CC1 (stereo not drawn) [Example 710, N-((4-(morpholino(phenyl)methyl)cyclohexyl)methyl)-2-((1-(2,4,6-trichlorophenylsulfonyl)pyrrolidin-2-yl)methoxy)acetamide] | 92% | 24% | 42%
